Results published in patent US20130085133A1, “ANTI-VIRAL TREATMENT AND ASSAY TO SCREENFOR ANTI-VIRAL AGENT” (Sourthern Research Institute Office of Commercialization …, priority 2010, published 2013).
pEC50: −log10 of the molar value.

What was measured:
[1] = cytotoxicity assay (percent viability of HEp-2 cells, Cell Titer-Glo); conditions: human, HEp-2 cells
[2] = test system: respiratory syncytial virus (RSV) strain Long; experiment: microbe, parasite or virus in culture; conditions: human respiratory syncytial virus, HEp-2, 144 h
Procedure: The assay measures RSV virus-induced CPE in HEp-2 cells using cell viability as the end point.
Two vials of RSV (strain Long) containing 1×10^7 pfu/mL was thawed using an Eppendorf thermomixer for 13 min at 15° C., with shaking at 350 rpm. […] The cells were incubated for 18-20 h at 37° C., 5% CO2, 90% relative humidity. The medium was aspirated and the cells washed with 10 mL PBS without Mg^2+ or Ca^2+. Cells were harvested from flasks using 0.25% trypsin-EDTA. The cells were resuspended in a freezing medium of 95% fetal calf serum and 5% DMSO to a final cell density of 2×10^6 cells/mL. One mL aliquots of this virus infected cell suspension were dispensed to cryovials and cells were rate frozen to −80° C. Frozen infected cells were then transferred to −150° C. for long term storage.
Test compounds were evaluated by measuring their antiviral activity, cell toxicity, and selectivity. Test compounds were serially diluted in a plate to plate matrix or “stacked plate” matrix. All 320 compounds in a source plate were diluted together resulting in a 10 point dose response dilution series. It was visualized as a serial dilution series proceeding vertically through a stack of plates with the high dose plate on top and the low dose plate on the bottom.
Cells were harvested and resuspended to 80,000 cells per ml in Complete DMEM/F12.
Cells were thawed in a room temperature water bath with gentle agitation. The tube was inverted 5-10. Cells were diluted to 80,000 cells per ml by adding the contents of the vial to 24 ml of cold (4° C.) media.
Twenty five ul of uninfected HEp-2 cells were plated in the cell control wells. Frozen infected cells were combined with uninfected HEp-2 cells at a 1:100 ratio. Twenty five ul of the cell mixture was added to the virus control and compound wells. All cell plating was conducted using a Matrix WellMate and cells were maintained at room temperature with stirring during the plating process. The assay plates were incubated for six days at 37° C., 5% CO2 and 90% relative humidity.
Following the six day incubation period, the assay plates were equilibrated to room temperature for 30 min and an equal volume (30 μL) of Cell Titer-Glo reagent (Promega Inc.) was added to each well using a WellMate (Matrix, Hudson, N.H.) and plates were incubated for an additional 10 min at room temperature. At the end of the incubation, luminescence was measured using a Perkin Elmer Envision™ multi-label reader (PerkinElmer, Wellesley, Mass.) with an integration time of 0.1 s.
Data was analyzed using ActivityBase software (IDBS, Inc, Guilford, UK). thirty two control wells containing cells only and twenty four wells containing cells and virus were included on each assay plate and used to calculate Z′ value for each plate and to normalize the data on a per plate basis. […] Eight ribavirin positive control wells were included on each plate for quality control purposes, but were not used in Z′ calculations. […] In the toxicity assay, results are described as percent viability and the calculation is the same.
An EC50 (for CPE inhibition) and IC50 (for cell viability) were calculated for each substance using the 4 parameter Levenburg-Marquardt algorithm with parameter A locked at 0 and parameter B locked at 100. Standard deviation, normalized chi2 and hill slope were used to evaluate the curves. Values were not extrapolated beyond the tested range of concentrations.

| Structure (SMILES) | CC50 at 6 days [1] | pEC50 [2] | EC50 [2] |
| --- | --- | --- | --- |
| Oc1ccc(O)cc1 [AB00053361] | > 50 µM | 4.32 | – |
| Cc1ccc(-c2nc3cc(N)ccc3o2)cc1Br [AB00076694] | > 25 µg/mL | – | 16.4 µg/mL |
| NC(=O)c1ccccc1NC(=O)CSc1nc2ccccc2o1 [AB00132114] | > 25 µg/mL | – | 20.7 µg/mL |
| Cn1cnnc1SCC(=O)N1c2ccccc2Sc2ccc(C(F)(F)F)cc21 [AB00139215] | > 25 µg/mL | – | 10.9 µg/mL |
| O=c1[nH]c(=O)n(Cc2ccc([N+](=O)[O-])cc2)cc1F [AB00173190] | > 50 µM | 4.68 | – |
| Cc1ccc(C)n1-c1ccc(C(=O)O)cc1 [AB00275199] | > 25 µg/mL | – | 13 µg/mL |
| Oc1cccc2ccc(N3CCOCC3)nc12 [AB00275625] | > 25 µg/mL | – | 15.2 µg/mL |
| O=C(c1ccc(O)cc1O)c1ccc(O)cc1O [AB00275918] | > 25 µg/mL | – | 20.5 µg/mL |
| Cc1cnc(NC(=O)c2ccc(Cl)cc2Cl)s1 [AB00276221] | > 25 µg/mL | – | 17.6 µg/mL |
| O=C(N1CCCC1)N1c2ccccc2CCc2ccccc21 [AB00276381] | > 25 µg/mL | – | 12.2 µg/mL |
| O=C(Nc1cccc(C(F)(F)F)c1)c1ccccc1Cl [AB00276634] | > 25 µg/mL | – | 15.8 µg/mL |
| O=c1[nH]cnc2sc3c(c12)CCCCC3 [AB00276706] | > 25 µg/mL | – | 19.6 µg/mL |
| Cc1ccc2c(ccc3nc(C)ccc32)n1 [AB00278348] | > 25 µg/mL | – | 12.6 µg/mL |
| CC(=O)CCc1c(C)nc2ccc(Br)cc2c1S [AB00279343] | > 25 µg/mL | – | 20.7 µg/mL |
| CC(=O)CCc1c(O)nc2ccccc2c1C [AB00279389] | > 25 µg/mL | – | 14.2 µg/mL |
| Cc1nc(N)sc1-c1csc(Nc2ccccn2)n1 [AB00280085] | > 25 µg/mL | – | 18.9 µg/mL |
| O=C(Nc1ccc(Nc2ccccc2)cc1)c1ccccc1F [AB00282102] | > 25 µg/mL | – | 12 µg/mL |
| CCOC(=O)c1ccc(NC(=O)CN(c2ccccc2Br)S(C)(=O)=O)cc1 [AB00282821] | > 25 µg/mL | – | 14.5 µg/mL |
| O=c1cnnc(N/N=C/c2ccccc2Br)[nH]1 [AB00283422] | > 25 µg/mL | – | 15.8 µg/mL |
| Cc1cc(C)cc(OCC(O)CNC(C)c2ccccc2)c1 (stereo not drawn) [AB00283699] | > 25 µg/mL | – | 12.9 µg/mL |
| Cc1ccccc1C(=O)Nc1sc2c(c1C(=O)N1CCN(Cc3ccccc3)CC1)CCCCC2 [AB00284323] | > 25 µg/mL | – | 17.5 µg/mL |
| Cc1ccc2nc(SCCC#N)nc(C)c2c1 [AB00284847] | > 25 µg/mL | – | 22.5 µg/mL |
| O=C(O)c1ccc(-c2cccc(Cl)c2Cl)o1 [AB00287600] | > 25 µg/mL | – | 12.7 µg/mL |
| COc1ccc(-c2cn3cccnc3n2)cc1 [AB00288908] | – | – | 21.6 µg/mL |
| CCOc1ccccc1OCCOCCOc1cccc2cccnc12 [AB00289145] | > 25 µg/mL | – | 24.2 µg/mL |
| COc1ccccc1OCC(=O)Nc1ccc(Br)cc1C(=O)O [AB00290004] | > 25 µg/mL | – | 23.2 µg/mL |

| Structure (SMILES) | CC50 at 6 days [1] | pEC50 [2] | EC50 [2] |
| --- | --- | --- | --- |
| CNC(=O)Nc1ccccc1C(=O)Nc1ccc(C)cc1 [AB00290142] | > 25 µg/mL | – | 19.4 µg/mL |
| CCCCSc1nc(=O)c(C(c2ccccc2)c2ccccc2)c(O)[nH]1 [AB00291408] | > 25 µg/mL | – | 24.2 µg/mL |
| CCOc1ccc(NC(=O)CSC2=C(C#N)C(c3ccncc3)C(C(=O)Nc3ccccc3)=C(C)N2)cc1 (stereo not drawn) [AB00292155] | > 25 µg/mL | – | 15.7 µg/mL |
| COc1cc(-c2nnc(SCc3cc(Cl)cc(Cl)c3)o2)cc(OC)c1OC [AB00292171] | > 25 µg/mL | – | 7.64 µg/mL |
| COc1ccc(NC(=O)CN2c3cccc4cccc(c34)S2(=O)=O)c(OC)c1 [AB00293237] | > 25 µg/mL | – | 10.3 µg/mL |
| CC(=O)c1ccc2c3c(ccc(O)c13)CC2 [AB00293238] | > 25 µg/mL | – | 11.4 µg/mL |
| Cc1cc(C)cc(NC(=O)c2cccc(NC(=O)c3ccco3)c2)c1 [AB00293678] | > 25 µg/mL | – | 18.6 µg/mL |
| Cc1ccc2nc(-c3ccccc3)c(CN3CCCC3)c(O)c2c1 [AB00293683] | > 25 µg/mL | – | 18.8 µg/mL |
| Fc1cccc(COc2ccc(C(=S)N3CCOCC3)cc2)c1 [AB00293926] | > 25 µg/mL | – | 10.8 µg/mL |
| NC(=O)CC1Nc2ccccc2NC1=O (stereo not drawn) [AB00294484] | > 25 µg/mL | – | 16.4 µg/mL |
| O=C(Nc1ccc2oc(-c3ccccc3Br)nc2c1)c1ccco1 [AB00294890] | > 25 µg/mL | – | 22.5 µg/mL |
| CCn1c(COc2ccccc2OC)nc2ccccc21 [AB00296345] | > 25 µg/mL | – | 18.9 µg/mL |
| COc1cc([N+](=O)[O-])ccc1NC(=O)C1CC(Cl)=CCC1C(=O)O (stereo not drawn) [AB00296680] | > 25 µg/mL | – | 12.9 µg/mL |
| Cc1ccc(-c2csc3nc[nH]c(=O)c23)cc1C [AB00297372] | > 25 µg/mL | – | 10.9 µg/mL |
| Cc1ccc(C(=O)Nc2ccc(OC(C)C)cc2)cc1C [AB00297482] | > 25 µg/mL | – | 14.1 µg/mL |
| Cc1ccc(S(=O)(=O)NC2CCCC(C(=O)Oc3ccc4c(c3)oc(=O)c3ccccc34)C2)cc1 (stereo not drawn) [AB00297971] | > 25 µg/mL | – | 19.2 µg/mL |
| Cc1ccc(S(=O)(=O)NC(C(=O)Oc2ccc3c(c2)oc(=O)c2ccccc23)c2ccccc2)cc1 (stereo not drawn) [AB00297982] | > 25 µg/mL | – | 11 µg/mL |
| CCC(Oc1ccc(-c2ccc(C)cc2)cc1)C(=O)OC (stereo not drawn) [AB00298660] | > 25 µg/mL | – | 13.5 µg/mL |
| COc1ccc(C(=O)N2CCC(C(=O)Nc3cccc(C(F)(F)F)c3)CC2)cc1 [AB00298665] | > 25 µg/mL | – | 12.1 µg/mL |
| O=C(C1CCN(S(=O)(=O)c2ccccc2)CC1)N1CCc2ccccc2C1 [AB00298862] | > 25 µg/mL | – | 20.4 µg/mL |
| COC(=O)Cc1ccc2c3ccccc3n(C)c2c1 [AB00299031] | > 25 µg/mL | – | 21.7 µg/mL |
| CC1=CC(C)(C)Nc2ccc(OC(=O)C(Cc3ccccc3)N3C(=O)C4CCCCC4C3=O)cc21 (stereo not drawn) [AB00299290] | > 25 µg/mL | – | 15.8 µg/mL |
| Cc1nc(Nc2ccccc2Cl)sc1C(=O)Nc1ccccc1 [AB00299380] | > 25 µg/mL | – | 10.4 µg/mL |
| O=C(Nc1ccc(F)c(Cl)c1)C1CCN(C(=O)c2ccc(Cl)cc2)CC1 [AB00299386] | > 25 µg/mL | – | 12.3 µg/mL |
| COc1ccc(C(=O)N2CCC(C(=O)Nc3cccc(Br)c3)CC2)cc1 [AB00299547] | > 25 µg/mL | – | 18.1 µg/mL |
| C=CCNC(=O)COc1ccc(Br)cc1C [AB00299924] | > 25 µg/mL | – | 22.4 µg/mL |

| Structure (SMILES) | CC50 at 6 days [1] | pEC50 [2] | EC50 [2] |
| --- | --- | --- | --- |
| O=C(O)c1ccc(NC(=S)NC(=O)c2ccc(-c3ccc(Br)cc3)o2)cc1 [AB00301183] | > 25 µg/mL | – | 22.6 µg/mL |
| COc1ccccc1C(=O)N(CCCCN1C(=O)c2ccccc2C1=O)c1ccc(Cl)cc1 [AB00301352] | > 25 µg/mL | – | 21.1 µg/mL |
| O=C1c2ccccc2C(=O)N1CCCCN(C(=O)c1ccccc1[N+](=O)[O-])c1ccc(Cl)cc1 [AB00301378] | > 25 µg/mL | – | 17.8 µg/mL |
| Cc1ccc(N(CCCCN2C(=O)c3ccccc3C2=O)C(=O)c2cccc(C)c2)cc1 [AB00302020] | > 25 µg/mL | – | 15.1 µg/mL |
| COCCNC(=O)Nc1ccc2nc(-c3cccs3)c(-c3cccs3)nc2c1 [AB00302454] | > 25 µg/mL | – | 15.3 µg/mL |
| COC(=O)c1ccc(NC(=O)c2ccc(C)c(Br)c2)cc1 [AB00302921] | > 25 µg/mL | – | 20.3 µg/mL |
| O=S1(=O)N=C(Nc2ccc3c4c(cccc24)CC3)c2ccccc21 [AB00304418] | > 25 µg/mL | – | 10.7 µg/mL |
| Cc1sc(NC(=O)CCc2ccccc2)c(C(=O)O)c1C [AB00304690] | > 25 µg/mL | – | 13.2 µg/mL |
| Cc1cccc(C(=O)Nc2cc(C(C)C)c(O)cc2C)c1 [AB00305611] | > 25 µg/mL | – | 17.1 µg/mL |
| c1ccc(-c2cc3c(N4CCN(c5ccccc5)CC4)ncnc3s2)cc1 [AB00306917] | > 25 µg/mL | – | 17.3 µg/mL |
| O=C1c2ccccc2C(=O)N1CCc1nc2ccccc2c(=O)n1-c1cc(Cl)ccc1Cl [AB00307079] | > 25 µg/mL | – | 14.3 µg/mL |
| COc1ccc(CN2C(=O)CC(Cc3ccccc3)C2=O)cc1 (stereo not drawn) [AB00307412] | > 25 µg/mL | – | 21.1 µg/mL |
| Cn1c(SCCc2ccccc2)nnc1-c1cccc([N+](=O)[O-])c1 [AB00309238] | > 25 µg/mL | – | 20.3 µg/mL |
| COc1ccc2cc(Br)ccc2c1CO [AB00309550] | > 25 µg/mL | – | 16.3 µg/mL |
| CCOc1ccccc1-c1cc(C(=O)O)c2cc(Br)ccc2n1 [AB00309817] | > 25 µg/mL | – | 14.3 µg/mL |
| O=C(c1ccc(Cl)cc1Cl)N1CCCN(C(=O)c2ccc(Cl)cc2Cl)CC1 [AB00309842] | > 25 µg/mL | – | 12.3 µg/mL |
| COC(=O)c1c(-c2ccc(C)c(C)c2)csc1NC(=O)CCCC(=O)O [AB00309859] | > 25 µg/mL | – | 6.84 µg/mL |
| COc1ccc(C(=O)NCCc2cccc(Cl)c2)c(OC)c1 [AB00310156] | > 25 µg/mL | – | 10.4 µg/mL |
| COC(=O)c1c(-c2ccc(C)cc2)csc1NC(=O)c1ccccc1Br [AB00310224] | > 25 µg/mL | – | 24.5 µg/mL |
| O=C(c1ccccc1C(=O)N1CCc2ccccc2C1)N1CCc2ccccc2C1 [AB00310729] | > 25 µg/mL | – | 14.1 µg/mL |
| CCC(C)N(C(=O)c1cc(Cl)ccc1OC)C(C)CC (stereo not drawn) [AB00310767] | > 25 µg/mL | – | 15 µg/mL |
| CCC(=O)Nc1ccc(-c2csc(N)n2)cc1 [AB00310808] | > 25 µg/mL | – | 23.6 µg/mL |
| O=C(Nc1ccccc1Br)c1cnccn1 [AB00310846] | > 25 µg/mL | – | 19.6 µg/mL |
| COC(=O)c1c(-c2ccccc2)csc1NC(=O)c1c(-c2ccccc2)noc1C [AB00310910] | > 25 µg/mL | – | 1.15 µg/mL |
| Nc1ccc2oc(-c3cc(F)c(F)cc3Cl)nc2c1 [AB00311411] | > 25 µg/mL | – | 22.7 µg/mL |
